Measured values published in patent US20190017060A1, “MANIPULATION OF PROANTHOCYANIDIN (PA) COMPOSITION BY AFFECTING ANTHOCYANIDIN SYNTHASE (ANS) AND LEUCOANTHOCYANIDIN DIOXYGENASE (LDOX)” (University of North Texas, priority 2017, published 2019).

How the values were obtained:
Type in all cases: biochemical, Medicago truncatula
[1] = system: ANS; assay: Enzyme assay with recombinant ANS protein, HPLC detection of cyanidin; conditions: 50 μg recombinant protein, 1 h at 30° C., HPLC at 530 nm; flavan-3-ols at 200 μM
Description: (§1) The full length ANS and LDOX cDNAs were cloned into pMal-c5x vector (New England Biolabs) at the SalI and BamHI site and BamHI and EcoRI site, respectively. The expression constructs were transformed into E. coli strain NEB® Express Competent E. coli (New England Biolabs). Transformed bacteria were grown in LB medium supplemented with 0.2% glucose to OD 600 of 0.5, and IPTG was added at 0.3 mM to induce protein expression. Bacteria were harvested after 4 h induction. ANS and LDOX proteins were purified with amylose resin (NEB, E8021) following the manufacturer's protocol. Briefly, bacteria were lysed by sonication at 4° C. in extraction buffer (20 mM Tris pH 7.0, 200 mM NaCl, 1 mM DTT). The bacterial lysates were centrifuged at 12,000 g for 15 min at 4° C. The supernatants were loaded on amylose resin which was washed with wash buffer (extraction buffer). Finally, proteins were eluted by elution buffer (20 mM Tris pH 7.0, 200 mM NaCl, 1 mM DTT, 10 mM maltose). Purified proteins were concentrated with an Amicon® Ultra-4 Centrifugal Filter (Millipore) and aliquoted to store at −80° C.
(§2) It was previously reported that ANS can convert leucocyanidin to cyanidin. To confirm this, separate enzyme reactions were set up for ANS and LDOX by incubating with leucocyanidin according to Tanner et al. The enzyme reaction was prepared in 100 μL volume including 20 mM potassium phosphate buffer (pH 7.0), 1 mM 2-oxoglutarate, 0.4 mM ammonium iron(II) sulfate, 4 mM sodium ascorbate, 100 mM NaCl, 10 mM maltose, 5 mM DTT and 50 μg recombinant proteins. The reactions were carried out for 1 h at 30° C. and terminated by addition of 1 μL 36% HCl and 10 μL 100% methanol. The reaction mixture was centrifuged for 5 min at 13,000 rpm at 4° C. and analyzed by HPLC. All reverse-phase HPLC analyses were performed on an Agilent HP1100 HPLC using the following gradient: solvent A (1% phosphoric acid) and B (acetonitrile) at 1 ml/min flow rate: 0-5 min, 5% B; 5-10 min, 5-10% B; 10-25 min, 10-17% B; 25-30 min, 17-23% B; 30-65 min, 23-50% B; 65-79 min, 50-100% B; 79-80 min, 100-5% B. Data were collected at 280 and 530 nm for flavonoids and anthocyanidins, respectively. Identifications were based on chromatographic behavior and UV spectra compared with those of authentic standards.
(§3) Since catechin was highly accumulated in the ldox mutant, it was tested whether ANS or LDOX protein can react with (+)-catechin (2R, 3S), which is stated as a naturally synthesized monomeric unit of PAs. The same enzyme reaction was set up but using 200 μM of (+)-catechin as substrate instead of leucocyanidin. Reactions without 2-oxoglutarate (-oxo) were run as negative controls. […] The enzyme reaction was performed with (+)-catechin as substrate and recombinant ANS or LDOX protein. Arrowhead indicates the peak for cyanidin (Cy) standard. Reactions without 2-oxoglutarate were run as negative controls and are denoted as -oxo. […] The enzyme assay was performed with (−)-catechin, (−)-epicatechin or (+)-epicatechin as substrate and purified recombinant ANS or LDOX protein. The substrate in each reaction is indicated. (−)-cat, (−)-catechin; (−)-epi, (−)-epicatechin; (+)-epi, (+)-epicatechin. […] The gray arrow denotes the catalyzed reaction in vitro. The proteins used are indicated in each chromatogram.

[2] = system: LDOX; assay: Enzyme assay with recombinant LDOX protein, HPLC detection of cyanidin; conditions: 50 μg recombinant protein, 1 h at 30° C., HPLC at 530 nm; flavan-3-ols at 200 μM
Description: as §1, §2, §3

[3] = system: ANS and ANR proteins; assay: Combined enzyme reaction of ANS with ANR; conditions: 200 μM substrate, 10 mM NADPH, 50 μg ANS and ANR proteins, HPLC at 280 nm
Description: as §2
(§4) Next, the combined reaction of ANS or LDOX with ANR was tested to check if (+)-catechin can be converted to (−)-epicatechin, which is the almost exclusive monomer unit of PA polymers in Medicago truncatula. […]

[4] = system: LDOX and ANR proteins; assay: Combined enzyme reaction of LDOX with ANR; conditions: 200 μM substrate, 10 mM NADPH, 50 μg LDOX and ANR proteins, HPLC at 280 nm
Description: as §2, §4

Row | in vitro conversion of substrate to cyanidin by ANS [1] | in vitro conversion of substrate to cyanidin by LDOX [2] | (+)-catechin converted to epicatechin [3] | (+)-catechin converted to epicatechin [4] | Compound
1 | No cyanidin generation was detected | No cyanidin generation was detected |  |  | (−)-catechin
2 | No cyanidin generation was detected | No cyanidin generation was detected |  |  | Oc1cc(O)c2c(c1)O[C@H](c1ccc(O)c(O)c1)[C@H](O)C2 [(−)-epicatechin]
3 | No cyanidin generation was detected | No cyanidin generation was detected |  |  | Oc1cc(O)c2c(c1)O[C@@H](c1ccc(O)c(O)c1)[C@@H](O)C2 [(+)-epicatechin]

Row | Compound | in vitro conversion of substrate to cyanidin by ANS [1] | in vitro conversion of substrate to cyanidin by LDOX [2] | (+)-catechin converted to epicatechin [3] | (+)-catechin converted to epicatechin [4]
4 | Oc1cc(O)c2c(c1)O[C@H](c1ccc(O)c(O)c1)[C@@H](O)C2 [(+)-catechin] | catalyze the in vitro conversion of (+)-catechin to cyanidin | catalyze the in vitro conversion of (+)-catechin to cyanidin | more than 70% | more than 70%
5 | Oc1cc(O)c2c(c1)OC(c1ccc(O)c(O)c1)C(O)C2O (stereo not drawn) [leucocyanidin] | catalyzed in vitro conversion of leucocyanidin to cyanidin | catalyzed in vitro conversion of leucocyanidin to cyanidin |  | 
